The source of these data is US12123030B2, “Polynucleotides encoding lipoprotein lipase for the treatment of hyperlipidemia” (ModernaTX, Inc., priority 2016, dated 2024).

One data set concerns IP-10. The data set is described as follows: Cytokine expression after nanoparticle compositions: IP-10. Format: in vivo. Particulars: 6 h; nanoparticle composition including the compound.
For another data set, the system named is IL-6. The data set is described as follows: Cytokine expression after nanoparticle compositions: IL-6. The format is in vivo. Particulars: 6 h; nanoparticle composition including the compound.
Another data set deals with ffluc. Briefly: Average total flux (ffluc) from nanoparticle compositions. The format is in vivo. Particulars: 6 h.
Another data set relates to adult rat. The data set is described as follows: Dose range finding (DRF) study in adult rat. Format: in vivo. Particulars: one month, one dose per week (5 total doses). As for the experimental part: (§1) Dose range finding (DRF) studies using surrogate Compound 18 are in progress to further examine the Compound 18 programs. One month of a DRF study, consisting of one dose per week (5 total doses) in adult rat was performed in order to measure hematology, clinical chemistry, and full pathology. […] Additionally, one month of GLP dose studies, consisting of five doses (one per week) via IV infusion will be administered to rats in order to examine safety pharmacology measures, including central nervous system (rats) and cardiovascular system (monkeys), such as heart rate, blood pressure, and EKG readings. Furthermore, gene toxicity studies were be undertaken, in vitro, using a 4 strain Ames test, and in vitro micronucleous hPBMCs. […] An in vivo mouse micronucleus assay will also be performed to further investigate the Compound 18/5-methoxy uridine (mo5U) modification chemistry.

For another data set, the system named is hEPO. The data set is described as follows: hEPO expression from nanoparticle compositions. Format: in vivo. Particulars: for hEPO expression: nanoparticle composition including the compound; for Average hEPO concentration: Table 9.
The next data set has as its system 4 strain Ames test. Briefly: 4 strain Ames test. Particulars: in vitro. The format is cell-based. As for the experimental part:
as §1
(In general: The Ames test uses bacterial strains that need an amino acid and regain growth without it when mutated back.)

Another data set concerns triglycerides. Particulars: existing hyperlipidemia treatment, patients; cited from earlier work.
The subject of data set [1] is triglycerides in HTG patients. Particulars: existing HTG treatments; cited from earlier work.

The structures appear in SMILES notation.

`CCCCC/C=C\C/C=C\CCCCCCCCN(CCO)CCCCCCCC(=O)OC(CCCCCCCC)CCCCCCCC` [Compound 6]: in the data set on IP-10, the “Cytokine expression IP-10” value was 116.66 pg/mL. In addition, the “Cytokine expression IL-6” value with IL-6 is 10.15 pg/mL. Moreover, the Average total flux in the data set on ffluc is 7.60 × 10^9.

With `CCCCCCCCCOC(=O)CCCCCCCN(CCO)CCCCCCCC(=O)OC(CCCCCCCC)CCCCCCCC` [Compound 18, Heptadecan-9-yl 8-((2-hydroxyethyl)(8-(nonyloxy)-8-oxooctyl)amino) octanoate], in the data set on adult rat, the adverse events result was “No adverse events were reported”. In addition, in the data set on adult rat, the clinical chemistry entry was “normal”. For the same compound, the hEPO expression amounted to 3e+06 pg/mL in the data set with hEPO (3 h) and 1.8e+06 pg/mL with hEPO (24 h). In the data set on hEPO (6 h), the “Average hEPO concentration” value came out at 3.38e+06 pg/mL. Also, the “Cytokine expression IP-10” value in the data set on IP-10 was found to be 299.93 pg/mL. Moreover, the “Cytokine expression IL-6” value in the data set with IL-6 amounted to 10.16 pg/mL. Besides, the “mutagenic potential (Ames data)” value with 4 strain Ames test is reported as “does not have mutagenic potential”.

In the case of `CCCCC/C=C\C/C=C\CCCCCCCCC(CCCCCCCC/C=C\C/C=C\CCCCC)OC(=O)CCCN(C)C` [MC3], the figures for the hEPO expression with hEPO (3 h), with hEPO (6 h) and with hEPO (24 h) were 1.57e+06 pg/mL, 1.83e+06 pg/mL and 810000 pg/mL, respectively. Also, in the data set with hEPO (6 h), the “Average hEPO concentration” value is 1.83e+06 pg/mL. For the same compound, the “Cytokine expression IP-10” value with IP-10 stood at 117.94 pg/mL. The “Cytokine expression IL-6” value in the data set on IL-6 came out at 19.85 pg/mL. In addition, the Average total flux in the data set with ffluc was 6.59 × 10^9.

For the compound `O=C(O)c1cccnc1` [Nicotinic acid], the reduction in triglycerides (in the data set with triglycerides; in data set [1]) was 15-25% in each case.
